One data set is described as follows: The drug is tested on Blautia hansenii strain: DSM20583 for biotransformation. The drug concentrations were measured before and after a 12-h incubation by liquid-chromatography-coupled mass spectrometry (LC–MS). The settings on record: 2 µM.
With `COc1cc2nc(N3CCN(C(=O)c4ccco4)CC3)nc(N)c2cc1OC` [PRAZOSIN], the “Bacterial Biotransformation” value is given as “Compound NOT metabolized”.

Turning to `CC(CN1c2ccccc2Sc2ccccc21)N(C)C` (configuration not stated) [PROMETHAZINE], the “Bacterial Biotransformation” value is reported as “Compound NOT metabolized”.

As to `CC(O)(CS(=O)(=O)c1ccc(F)cc1)C(=O)Nc1ccc(C#N)c(C(F)(F)F)c1` (configuration not stated) [BICALUTAMIDE], the “Bacterial Biotransformation” value is “Compound NOT metabolized”.

A short description of a further data set: The drug is tested on Bacteroides vulgatus strain: ATCC8482 for biotransformation. The drug concentrations were measured before and after a 12-h incubation by liquid-chromatography-coupled mass spectrometry (LC–MS). Conditions: phocaeicola vulgatus, 2 µM.
For the molecule `CC(CN1c2ccccc2Sc2ccccc21)N(C)C` (configuration not stated) [PROMETHAZINE], the “Bacterial Biotransformation” value is given as “Compound NOT metabolized”.

A further data set is described as follows: The drug is tested on Bifidobacterium ruminantium strain: fecal isolate for biotransformation. The drug concentrations were measured before and after a 12-h incubation by liquid-chromatography-coupled mass spectrometry (LC–MS). The settings on record: 2 µM.
Regarding `COc1cc2nc(N3CCN(C(=O)c4ccco4)CC3)nc(N)c2cc1OC` [PRAZOSIN], the “Bacterial Biotransformation” value is on record as “Compound NOT metabolized”.

A further data set is described as follows: The drug is tested on Bacteroides xylanisolvens strain: DSM18836 for biotransformation. The drug concentrations were measured before and after a 12-h incubation by liquid-chromatography-coupled mass spectrometry (LC–MS). Conditions: 2 µM.
On to `COc1cc2nc(N3CCN(C(=O)c4ccco4)CC3)nc(N)c2cc1OC` [PRAZOSIN], for which the “Bacterial Biotransformation” value is “Compound NOT metabolized”.

Take `CC(CN1c2ccccc2Sc2ccccc21)N(C)C` (configuration not stated) [PROMETHAZINE]: the “Bacterial Biotransformation” value is “Compound NOT metabolized”.

Turning to `CC(O)(CS(=O)(=O)c1ccc(F)cc1)C(=O)Nc1ccc(C#N)c(C(F)(F)F)c1` (configuration not stated) [BICALUTAMIDE], the “Bacterial Biotransformation” value is on record as “Compound NOT metabolized”.

Another data set is described as follows: The drug is tested on Bacteroides fragilis strain: HMW615 for biotransformation. The drug concentrations were measured before and after a 12-h incubation by liquid-chromatography-coupled mass spectrometry (LC–MS). Conditions: 2 µM.
Consider `COc1cc2nc(N3CCN(C(=O)c4ccco4)CC3)nc(N)c2cc1OC` [PRAZOSIN], for which the “Bacterial Biotransformation” value is reported as “Compound NOT metabolized”.

`CC(CN1c2ccccc2Sc2ccccc21)N(C)C` (configuration not stated) [PROMETHAZINE]: the “Bacterial Biotransformation” value was “Compound NOT metabolized”.

As to `CC(O)(CS(=O)(=O)c1ccc(F)cc1)C(=O)Nc1ccc(C#N)c(C(F)(F)F)c1` (configuration not stated) [BICALUTAMIDE], the “Bacterial Biotransformation” value is recorded as “Compound metabolized”.

The nature of another data set: The drug is tested on Clostridium sporogenes strain: ATCC15579 for biotransformation. The drug concentrations were measured before and after a 12-h incubation by liquid-chromatography-coupled mass spectrometry (LC–MS). Conditions: 2 µM.
On to `CC(CN1c2ccccc2Sc2ccccc21)N(C)C` (configuration not stated) [PROMETHAZINE], for which the “Bacterial Biotransformation” value is listed as “Compound NOT metabolized”.

For `CC(O)(CS(=O)(=O)c1ccc(F)cc1)C(=O)Nc1ccc(C#N)c(C(F)(F)F)c1` (configuration not stated) [BICALUTAMIDE], the “Bacterial Biotransformation” value is “Compound NOT metabolized”.

A short description of a further data set: The drug is tested on Bacteroides uniformis strain: ATCC8492 for biotransformation. The drug concentrations were measured before and after a 12-h incubation by liquid-chromatography-coupled mass spectrometry (LC–MS). The settings on record: 2 µM.
With `COc1cc2nc(N3CCN(C(=O)c4ccco4)CC3)nc(N)c2cc1OC` [PRAZOSIN], the “Bacterial Biotransformation” value is “Compound NOT metabolized”.

As to `CC(CN1c2ccccc2Sc2ccccc21)N(C)C` (configuration not stated) [PROMETHAZINE], the “Bacterial Biotransformation” value is “Compound NOT metabolized”.

Regarding `CC(O)(CS(=O)(=O)c1ccc(F)cc1)C(=O)Nc1ccc(C#N)c(C(F)(F)F)c1` (configuration not stated) [BICALUTAMIDE], the “Bacterial Biotransformation” value is listed as “Compound NOT metabolized”.

A short description of a further data set: The drug is tested on Eubacterium ventriosum strain: ATCC27560 for biotransformation. The drug concentrations were measured before and after a 12-h incubation by liquid-chromatography-coupled mass spectrometry (LC–MS). The arrangement: dose 2 uM, timepoint 0 vs 12 hours. Conditions: 2 µM. Type of data set: ADME.
Take `COc1cc2nc(N3CCN(C(=O)c4ccco4)CC3)nc(N)c2cc1OC` [PRAZOSIN]: the “Bacterial Biotransformation” value was “Compound NOT metabolized”.

For the molecule `CC(CN1c2ccccc2Sc2ccccc21)N(C)C` (configuration not stated) [PROMETHAZINE], the “Bacterial Biotransformation” value is “Compound NOT metabolized”.

Consider `CC(O)(CS(=O)(=O)c1ccc(F)cc1)C(=O)Nc1ccc(C#N)c(C(F)(F)F)c1` (configuration not stated) [BICALUTAMIDE], for which the “Bacterial Biotransformation” value is “Compound NOT metabolized”.

The conditions of a further data set: segatella copri, 12 h, 2 µM.
Description: The drug is tested on Prevotella copri strain: DSM18205 for biotransformation. The drug concentrations were measured before and after a 12-h incubation by liquid-chromatography-coupled mass spectrometry (LC–MS)
For the molecule `COc1cc2nc(N3CCN(C(=O)c4ccco4)CC3)nc(N)c2cc1OC` [PRAZOSIN], the “Bacterial Biotransformation” value is recorded as “Compound NOT metabolized”.

On to `CC(CN1c2ccccc2Sc2ccccc21)N(C)C` (configuration not stated) [PROMETHAZINE], for which the “Bacterial Biotransformation” value is reported as “Compound NOT metabolized”.

For `CC(O)(CS(=O)(=O)c1ccc(F)cc1)C(=O)Nc1ccc(C#N)c(C(F)(F)F)c1` (configuration not stated) [BICALUTAMIDE], the “Bacterial Biotransformation” value is given as “Compound NOT metabolized”.

Another data set is described as follows: The drug is tested on Coprococcus comes strain: ATCC27758 for biotransformation. The drug concentrations were measured before and after a 12-h incubation by liquid-chromatography-coupled mass spectrometry (LC–MS). Type of data set: ADME. On the set-up: dose 2 uM, timepoint 0 vs 12 hours. The settings on record: 2 µM.
With `COc1cc2nc(N3CCN(C(=O)c4ccco4)CC3)nc(N)c2cc1OC` [PRAZOSIN], the “Bacterial Biotransformation” value is on record as “Compound NOT metabolized”.

Regarding `CC(CN1c2ccccc2Sc2ccccc21)N(C)C` (configuration not stated) [PROMETHAZINE], the “Bacterial Biotransformation” value is “Compound NOT metabolized”.

Consider `CC(O)(CS(=O)(=O)c1ccc(F)cc1)C(=O)Nc1ccc(C#N)c(C(F)(F)F)c1` (configuration not stated) [BICALUTAMIDE], for which the “Bacterial Biotransformation” value was “Compound NOT metabolized”.

The conditions of a further data set: anaerostipes sp., 12 h, 2 µM.
Description: The drug is tested on Anaerostipes sp. strain: fecal isolate for biotransformation. The drug concentrations were measured before and after a 12-h incubation by liquid-chromatography-coupled mass spectrometry (LC–MS)
As for `COc1cc2nc(N3CCN(C(=O)c4ccco4)CC3)nc(N)c2cc1OC` [PRAZOSIN], the “Bacterial Biotransformation” value is on record as “Compound NOT metabolized”.

Turning to `CC(CN1c2ccccc2Sc2ccccc21)N(C)C` (configuration not stated) [PROMETHAZINE], the “Bacterial Biotransformation” value is “Compound NOT metabolized”.

With `CC(O)(CS(=O)(=O)c1ccc(F)cc1)C(=O)Nc1ccc(C#N)c(C(F)(F)F)c1` (configuration not stated) [BICALUTAMIDE], the “Bacterial Biotransformation” value is given as “Compound NOT metabolized”.

Another data set can be described thus: The drug is tested on Odoribacter splanchnicus strain: fecal isolate for biotransformation. The drug concentrations were measured before and after a 12-h incubation by liquid-chromatography-coupled mass spectrometry (LC–MS). The settings on record: 2 µM.
For `COc1cc2nc(N3CCN(C(=O)c4ccco4)CC3)nc(N)c2cc1OC` [PRAZOSIN], the “Bacterial Biotransformation” value is reported as “Compound NOT metabolized”.

Regarding `CC(O)(CS(=O)(=O)c1ccc(F)cc1)C(=O)Nc1ccc(C#N)c(C(F)(F)F)c1` (configuration not stated) [BICALUTAMIDE], the “Bacterial Biotransformation” value is listed as “Compound metabolized”.

The nature of a further data set: The drug is tested on Ruminococcus lactaris strain: ATCC29176 for biotransformation. The drug concentrations were measured before and after a 12-h incubation by liquid-chromatography-coupled mass spectrometry (LC–MS). The settings on record: 2 µM.
For `COc1cc2nc(N3CCN(C(=O)c4ccco4)CC3)nc(N)c2cc1OC` [PRAZOSIN], the “Bacterial Biotransformation” value is on record as “Compound NOT metabolized”.

Regarding `CC(O)(CS(=O)(=O)c1ccc(F)cc1)C(=O)Nc1ccc(C#N)c(C(F)(F)F)c1` (configuration not stated) [BICALUTAMIDE], the “Bacterial Biotransformation” value is “Compound NOT metabolized”.

A further data set can be described thus: The drug is tested on Enterococcus faecalis strain: V583 for biotransformation. The drug concentrations were measured before and after a 12-h incubation by liquid-chromatography-coupled mass spectrometry (LC–MS). The settings on record: 2 µM.
As for `COc1cc2nc(N3CCN(C(=O)c4ccco4)CC3)nc(N)c2cc1OC` [PRAZOSIN], the “Bacterial Biotransformation” value is “Compound NOT metabolized”.

With `CC(CN1c2ccccc2Sc2ccccc21)N(C)C` (configuration not stated) [PROMETHAZINE], the “Bacterial Biotransformation” value is given as “Compound NOT metabolized”.

For `CC(O)(CS(=O)(=O)c1ccc(F)cc1)C(=O)Nc1ccc(C#N)c(C(F)(F)F)c1` (configuration not stated) [BICALUTAMIDE], the “Bacterial Biotransformation” value is given as “Compound NOT metabolized”.

A short description of a further data set: The drug is tested on Dorea formicigenerans strain: ATCC27755 for biotransformation. The drug concentrations were measured before and after a 12-h incubation by liquid-chromatography-coupled mass spectrometry (LC–MS). Conditions: 2 µM.
In the case of `COc1cc2nc(N3CCN(C(=O)c4ccco4)CC3)nc(N)c2cc1OC` [PRAZOSIN], the “Bacterial Biotransformation” value is recorded as “Compound NOT metabolized”.

As to `CC(CN1c2ccccc2Sc2ccccc21)N(C)C` (configuration not stated) [PROMETHAZINE], the “Bacterial Biotransformation” value is “Compound NOT metabolized”.

Take `CC(O)(CS(=O)(=O)c1ccc(F)cc1)C(=O)Nc1ccc(C#N)c(C(F)(F)F)c1` (configuration not stated) [BICALUTAMIDE]: the “Bacterial Biotransformation” value was “Compound NOT metabolized”.

For another data set the following is noted: akkermansia muciniphila, 12 h, 2 µM.
Description: The drug is tested on Akkermansia muciniphila strain: ATCC BAA-835 for biotransformation. The drug concentrations were measured before and after a 12-h incubation by liquid-chromatography-coupled mass spectrometry (LC–MS)
In the case of `COc1cc2nc(N3CCN(C(=O)c4ccco4)CC3)nc(N)c2cc1OC` [PRAZOSIN], the “Bacterial Biotransformation” value is recorded as “Compound NOT metabolized”.

For the molecule `CC(CN1c2ccccc2Sc2ccccc21)N(C)C` (configuration not stated) [PROMETHAZINE], the “Bacterial Biotransformation” value is “Compound NOT metabolized”.

Take `CC(O)(CS(=O)(=O)c1ccc(F)cc1)C(=O)Nc1ccc(C#N)c(C(F)(F)F)c1` (configuration not stated) [BICALUTAMIDE]: the “Bacterial Biotransformation” value is reported as “Compound NOT metabolized”.

A short description of another data set: The drug is tested on Ruminococcus torques strain: ATCC27756 for biotransformation. The drug concentrations were measured before and after a 12-h incubation by liquid-chromatography-coupled mass spectrometry (LC–MS). On the set-up: dose 2 uM, timepoint 0 vs 12 hours. The settings on record: 2 µM. The class given is ADME.
For the molecule `COc1cc2nc(N3CCN(C(=O)c4ccco4)CC3)nc(N)c2cc1OC` [PRAZOSIN], the “Bacterial Biotransformation” value was “Compound NOT metabolized”.

As for `CC(CN1c2ccccc2Sc2ccccc21)N(C)C` (configuration not stated) [PROMETHAZINE], the “Bacterial Biotransformation” value is on record as “Compound NOT metabolized”.

In the case of `CC(O)(CS(=O)(=O)c1ccc(F)cc1)C(=O)Nc1ccc(C#N)c(C(F)(F)F)c1` (configuration not stated) [BICALUTAMIDE], the “Bacterial Biotransformation” value is given as “Compound NOT metabolized”.

For the next data set the following is noted: roseburia intestinalis, 12 h, 2 µM.
Description: The drug is tested on Roseburia intestinalis strain: L1-82 for biotransformation. The drug concentrations were measured before and after a 12-h incubation by liquid-chromatography-coupled mass spectrometry (LC–MS)
As to `COc1cc2nc(N3CCN(C(=O)c4ccco4)CC3)nc(N)c2cc1OC` [PRAZOSIN], the “Bacterial Biotransformation” value was “Compound NOT metabolized”.

As for `CC(O)(CS(=O)(=O)c1ccc(F)cc1)C(=O)Nc1ccc(C#N)c(C(F)(F)F)c1` (configuration not stated) [BICALUTAMIDE], the “Bacterial Biotransformation” value is “Compound NOT metabolized”.

A short description of another data set: The drug is tested on Providencia rettgeri strain: DSM1131 for biotransformation. The drug concentrations were measured before and after a 12-h incubation by liquid-chromatography-coupled mass spectrometry (LC–MS). The settings on record: 2 µM. The arrangement: dose 2 uM, timepoint 0 vs 12 hours. Type of data set: ADME.
Turning to `COc1cc2nc(N3CCN(C(=O)c4ccco4)CC3)nc(N)c2cc1OC` [PRAZOSIN], the “Bacterial Biotransformation” value is given as “Compound NOT metabolized”.

For the origin of these results see ChEMBL document CHEMBL5303573, “Mapping human microbiome drug metabolism by gut bacteria and their genes” (Nature, 2019).
